Results as given in patent US9682054B2, “Medium-chain length fatty acids, glycerides and analogues as stimulators of erythropoiesis” (PROMETIC PHARMA SMT LIMITED, priority 2003, dated 2017).
Entries after “also recorded” stand apart in the source; their conditions may differ. Read-outs that look alike come from different tables or passages of the source.

How the values were obtained:
spleen red cell = assay: Chemoprotection study: spleen red cell count in cyclophosphamide treated mice; type: in vivo, C57BL/6 mice
Description: Effect of tricaprin, capric acid and sodium caprate on in vivo induction of immune cell proliferation or protection was undertaken following the protocol described in example 1. After the sacrifice, tissues were crushed in PBS buffer and cells were counted on a hemacytometer. Effect of oral and intravenous administration of sodium caprate on in vivo induction of immune cell proliferation or protection was undertaken following the protocol described in example 1. After sacrifice, tissues were crushed in PBS buffer and cells were counted on a hemacytometer.

[1] = tested on: bone marrow from the femur; details: for Gross pathological observations: Bone Marrow Color: femur at day +5; for appearance of the femur (bone marrow): immunosuppression induced by 5-fluorouracil (5-FU) 80 mg/kg i.v., compared with the cyclophosphamide results (red femur)
Method: Female C57BL/6 mice, 6 to 8 week old, were immunosuppressed by treatment with 200 mg/kg of cyclophosphamide (CY) or 80 mg/kg 5-fluorouracil (5-FU) administered intravenously at day 0. To examine the immunoprotective effect of MCT or other compounds, mice were pre-treated orally at day −3, −2 and −1 at day 0 with the compound. Mice were sacrificed at day +5 by cardiac puncture and cervical dislocation. Then, a gross pathological observation of the femurs (as a source of bone marrow cells) was recorded.

human bone marrow cells = assay: In vitro human bone marrow cell proliferation ([3H]-thymidine incorporation); type: cell-based
Method: Bone marrow cells were obtained from the sternum of cancer patients. Cells were washed with PBS and resuspended at a concentration of 2×10^6 cells per ml. Cells were cultured in RPMI/FBS media in the presence or the absence of tricaprin or tricaprylin for 48 and 72 hours at 37° C. After incubation, cells were pulsed with 1 μCi of [^3H]-thymidine for 6 hours. Plates were harvested on a Tomteck and counted on a Microbeta β-counter. Incorporation of [^3H]-thymidine in the DNA is a direct indication of the cell proliferation.

bone marrow red cell = assay: Chemoprotection study: bone marrow red cell count in cyclophosphamide treated mice, comparison with GM-CSF; type: in vivo, C57BL/6 mice
Description: (§1) Effect of oral and intravenous administration of sodium caprate and GM-CSF on in vivo induction of immune cell proliferation or protection was undertaken following the protocol described in example 1. After sacrifice, tissues were crushed in PBS buffer and cells were counted on a hemacytometer.

bone marrow cells = assay: Anemia model: ex vivo bone marrow colony forming unit (CFU) formation assay; type: in vivo, BALB/c mice; details: i.v. pre-treatment
Method: To examine the immunoprotective or immunorestorative effect of sodium caprate in an anemia model, BALB/c mice were pre-treated intravenously at day −3, −2 and −1 with compound. Anemia was induced by treatment with 60 mg/kg phenylhydrazine administered intraperitonealy at day 0 to female BALB/c mice, 6 to 8 week old. Mice were sacrificed at day +6 by cardiac puncture and cervical dislocation. Then, bone marrow cells were obtained from femur. Cells were flushed and washed with PBS. Based on the viable cells count, the cells were resuspended at a concentration of 5×10^5 cells per ml in IMDM media supplemented with 2% FBS. From these cells, two replicates of 3×10^4 cells per dish were plated in Methocult medium so that a colony forming unit (CFU) formation assay could be undertaken. CFU-E and BFU-E were recorded after 2 to 3 days culture. CFU-GM and CFU-GEMM were recorded after 14 to 16 days culture.

peripheral blood cell = assay: Chemoprotection study: number of peripheral blood cell; type: in vivo, C57BL/6 mice; details: sodium caprate used alone
Description: as §1

[2] = tested on: human hematopoietic progenitors; assay: In vitro human bone marrow colony forming unit (CFU) formation assay; type: cell-based; details: for BFU-E / CFU-GEMM / CFU-GM / TOTAL CFC (Colony Forming Cells): tricaprin 10%; for increase in BFU-E colonies formation / increase in the number of CFU-GEMM: versus control
Method: Bone marrow cells were obtained from the sternum of various cancer patients. Cells were washed with PBS and resuspended at a concentration of 2×10^6 cells per ml. Cells were cultured in RPMI/FBS or Myelocult (Stem cell technology, Vancouver)/FBS media in the presence or the absence of tricaprin for 5 days at 37° C. After incubation, cells were harvested, washed and counted. Based on the viable cells count, the cells were resuspended at a concentration of 5×10^5 cells per ml in IMDM media supplemented with 2% FBS. From these cells, four replicates of 2.5×10^4 cells per dish were plated in Methocult medium so that a colony forming unit (CFU) formation assay could be undertaken. CFU-GM, CFU-GEMM and BFU-E were recorded after 14 to 16 days culture.

[3] = cyclophosphamide (CY) 200 mg/kg i.v. day 0 plus compound given orally as pre-treatment
[4] = single agent (GM-CSF at high concentration, 1 μg/kg)
[5] = normal mice, bone marrow cells in Methocult
[6] = phenylhydrazine-induced anemia mice (60 mg/kg i.p.)
[7] = Myelocult/FBS medium, Experiment 1
[8] = Myelocult/FBS medium, Experiment 2

## CCCCCCCCCC(=O)O [capric acid]
Spleen red cell; oral pre-treatment
  spleen red cell count: significant increase
[1]; [3]
  Gross pathological observations: Bone Marrow Color: Red
[1]
  appearance of the femur (bone marrow): same results

## CCCCCCCC(=O)OCC(COC(=O)CCCCCCC)OC(=O)CCCCCCC [tricaprylin]
Human bone marrow cells; time not stated
  bone marrow proliferation in combination with erythropoietin (EPO): synergistic increase
Human bone marrow cells; human bone marrow cells, RPMI/FBS, 48 and 72 hours, [3H]-thymidine
  increase in bone marrow proliferation relative to the control: 2 fold
[1]; [3]
  Gross pathological observations: Bone Marrow Color: Red
[1]
  appearance of the femur (bone marrow): same results

## GM-CSF: GM-CSF, comparator growth factor used at 1 μg/kg
Bone marrow red cell; [4]
  bone marrow red cell count: significant increase

## CCCCCCCCCC(=O)[O-].[Na+] [sodium caprate]
Bone marrow red cell; in combination with GM-CSF
  bone marrow red cell count: additive increase
Bone marrow red cell; [4]
  bone marrow red cell count: significant increase
Spleen red cell; intravenous pre-treatment
  spleen red cell count: significant increase; also recorded: increases the spleen red cell counts to the baseline level of control mice
Spleen red cell; oral pre-treatment
  spleen red cell count: significant increase
Bone marrow cells; [5]
  number of CFU-E: enhances
  number of CFU-GEMM: enhances
Bone marrow cells; [6]
  CFU-E: strong increase
  CFU-GEMM: strong increase
  CFU-GM: strong increase
[1]; [3]
  Gross pathological observations: Bone Marrow Color: Red
[1]
  appearance of the femur (bone marrow): same results
Peripheral blood cell
  number of peripheral blood cell: significant increase

## CCCCCCCCCC(=O)OCC(COC(=O)CCCCCCCCC)OC(=O)CCCCCCCCC [tricaprin]
Spleen red cell; oral pre-treatment
  spleen red cell count: significant increase
Human bone marrow cells; 48 hours
  bone marrow proliferation in combination with erythropoietin (EPO): additive
Human bone marrow cells; 72 hours
  bone marrow proliferation in combination with erythropoietin (EPO): synergistic
[2]; [7]
  BFU-E: 380
  CFU-GEMM: 4.75
  CFU-GM: 17
  TOTAL CFC (Colony Forming Cells): 401
[2]; [8]
  BFU-E: 268
  CFU-GEMM: 4.25
  CFU-GM: 34
  TOTAL CFC (Colony Forming Cells): 306
[2]; Myelocult/FBS medium
  increase in BFU-E colonies formation: up to 6 times
  increase in the number of CFU-GEMM: up to 2 times
[2]; RPMI/FBS medium, Experiment 1
  BFU-E: 130
  CFU-GEMM: 4.75
  CFU-GM: 26
  TOTAL CFC (Colony Forming Cells): 161
[2]; RPMI/FBS medium, Experiment 2
  BFU-E: 121
  CFU-GEMM: 4
  CFU-GM: 25
  TOTAL CFC (Colony Forming Cells): 150
[2]; RPMI/FBS medium
  increase in BFU-E colonies formation: up to 13 times
  increase in the number of CFU-GEMM: up to 3 times
[1]; [3]
  Gross pathological observations: Bone Marrow Color: Red
[1]
  appearance of the femur (bone marrow): same results

## O=P1(N(CCCl)CCCl)NCCCO1 (stereo not shown) [CY, cyclophosphamide, reference compound]
[1]; cyclophosphamide (CY) 200 mg/kg i.v. day 0 alone
  Gross pathological observations: Bone Marrow Color: White, almost translucent
